From patent US20250263459A1, “STABILIZED PACAP PEPTIDE” (SENJU PHARMACEUTICAL CO., LTD., priority 2019, published 2025)
Non-standard residues stand in square brackets, D forms with d. Residues, ends and D or L forms follow the SMILES beside them. Ala(1H-tetrazol-5-yl) = N[C@@H](Cc1nnn[nH]1)C(=O)O

Assay: Stability test 1, sample preparation 5: survival rate of peptide in Tris buffer (pH 7.0) after storage, HPLC
Type: physicochemical
Details: 100 μM peptide; for survival rate after correction for water, 40° C. 4 week / survival rate after correction for water, 40° C. 8 week: Tris buffer pH 7.0, 40° C.; for survival rate after correction for water, 40° C. 4 week: 4 weeks (Table 13); for survival rate after correction for water, 40° C. 8 week: 8 weeks (Table 13); for survival rate after correction for water, 60° C. 1 week / survival rate after correction for water, 60° C. 2 week: Tris buffer pH 7.0, 60° C.; for survival rate after correction for water, 60° C. 1 week: 1 week (Table 13); for survival rate after correction for water, 60° C. 2 week: 2 weeks (Table 13)
Procedure: The peak area value for the peptide in the chromatogram was calculated, and the survival rate (survival rate before correction for water) was calculated using formula (2). The survival rate after correction for water was also calculated from the survival rate before correction for water using formula (3) to take into account the permeability of the container.
The prepared peptide solutions were incubated for 4 weeks or 8 weeks in a 40° C. thermostatic bath, and for one week or 2 weeks in a thermostatic bath at 60° C., to obtain stored samples.
The following gradient time was used only for peptide 30.

SMILES | survival rate after correction for water, 40° C. 4 week [%] | survival rate after correction for water, 40° C. 8 week [%] | survival rate after correction for water, 60° C. 1 week [%] | survival rate after correction for water, 60° C. 2 week [%]
CC(=O)N[C@@H](Cc1c[nH]cn1)C(=O)N[C@@H](CO)C(=O)N[C@@H](Cc1nnn[nH]1)C(=O)NCC(=O)N[C@@H](C)C(=O)N[C@@H](Cc1ccccc1)C(=O)N[C@H](C(=O)N[C@@H](Cc1nnn[nH]1)C(=O)N[C@@H](CO)C(=O)N[C@@H](Cc1ccc(O)cc1)C(=O)N[C@@H](CO)C(=O)N[C@@H](CCCNC(=N)N)C(=O)N[C@@H](Cc1ccc(O)cc1)C(=O)N[C@@H](CCCNC(=N)N)C(=O)N[C@@H](CCCCN)C(=O)N[C@@H](CCC(N)=O)C(=O)N[C@@H](CC(C)C)C(=O)N[C@@H](C)C(=O)N[C@H](C(=O)N[C@@H](CCCCN)C(=O)N[C@@H](CCCCN)C(=O)N[C@@H](Cc1ccc(O)cc1)C(=O)N[C@@H](CC(C)C)C(=O)N[C@@H](C)C(=O)N[C@@H](C)C(=O)N[C@H](C(=O)N[C@@H](CC(C)C)C(N)=O)C(C)C)C(C)C)[C@@H](C)O [Peptide 23, HSTzGA FTTzSY SRYRK QLAVK KYLAA VL] (Ac-HS[Ala(1H-tetrazol-5-yl)]GAFT[Ala(1H-tetrazol-5-yl)]SYSRYRKQLAVKKYLAAVL-NH2) | 87.7 | 89.1 | 96.4 | 91.3
CC[C@H](C)[C@H](NC(=O)CNC(=O)[C@H](Cc1nnn[nH]1)NC(=O)[C@H](CO)NC(=O)[C@H](Cc1c[nH]cn1)NC(C)=O)C(=O)N[C@@H](Cc1ccccc1)C(=O)N[C@@H](C)C(=O)N[C@@H](Cc1nnn[nH]1)C(=O)N[C@@H](CO)C(=O)N[C@@H](Cc1ccc(O)cc1)C(=O)N[C@@H](CO)C(=O)N[C@@H](CCCNC(=N)N)C(=O)N[C@@H](Cc1ccc(O)cc1)C(=O)N[C@@H](CCCNC(=N)N)C(=O)N[C@@H](CCCCN)C(=O)N[C@@H](CCC(N)=O)C(=O)N[C@@H](CC(C)C)C(=O)N[C@@H](C)C(=O)N[C@H](C(=O)N[C@@H](CCCCN)C(=O)N[C@@H](CCCCN)C(=O)N[C@@H](Cc1ccc(O)cc1)C(=O)N[C@@H](CC(C)C)C(=O)N[C@@H](C)C(=O)N[C@@H](C)C(=O)N[C@H](C(=O)N[C@@H](CC(C)C)C(N)=O)C(C)C)C(C)C [Peptide 24, HSTzGI FATzSY SRYRK QLAVK KYLAA VL] (Ac-HS[Ala(1H-tetrazol-5-yl)]GIFA[Ala(1H-tetrazol-5-yl)]SYSRYRKQLAVKKYLAAVL-NH2) | 90.5 | 83.5 | 99.5 | 91.1
CC[C@H](C)[C@H](NC(=O)CNC(=O)[C@H](Cc1nnn[nH]1)NC(=O)[C@H](C)NC(=O)[C@H](Cc1c[nH]cn1)NC(C)=O)C(=O)N[C@@H](Cc1ccccc1)C(=O)N[C@@H](C)C(=O)N[C@@H](Cc1nnn[nH]1)C(=O)N[C@@H](CO)C(=O)N[C@@H](Cc1ccc(O)cc1)C(=O)N[C@@H](CO)C(=O)N[C@@H](CCCNC(=N)N)C(=O)N[C@@H](Cc1ccc(O)cc1)C(=O)N[C@@H](CCCNC(=N)N)C(=O)N[C@@H](CCCCN)C(=O)N[C@@H](CCC(N)=O)C(=O)N[C@@H](CC(C)C)C(=O)N[C@@H](C)C(=O)N[C@H](C(=O)N[C@@H](CCCCN)C(=O)N[C@@H](CCCCN)C(=O)N[C@@H](Cc1ccc(O)cc1)C(=O)N[C@@H](CC(C)C)C(=O)N[C@@H](C)C(=O)N[C@@H](C)C(=O)N[C@H](C(=O)N[C@@H](CC(C)C)C(N)=O)C(C)C)C(C)C [Peptide 25, HATzGI FATzSY SRYRK QLAVK KYLAA VL] (Ac-HA[Ala(1H-tetrazol-5-yl)]GIFA[Ala(1H-tetrazol-5-yl)]SYSRYRKQLAVKKYLAAVL-NH2) | 91.3 | 85.1 | 97.3 | 93.1
CC[C@H](C)[C@H](NC(=O)CNC(=O)[C@H](Cc1nnn[nH]1)NC(=O)[C@H](C)NC(=O)[C@H](Cc1c[nH]cn1)NC(C)=O)C(=O)N[C@@H](Cc1ccccc1)C(=O)N[C@H](C(=O)N[C@@H](Cc1nnn[nH]1)C(=O)N[C@@H](CO)C(=O)N[C@@H](Cc1ccc(O)cc1)C(=O)N[C@@H](CO)C(=O)N[C@@H](CCCNC(=N)N)C(=O)N[C@@H](Cc1ccc(O)cc1)C(=O)N[C@@H](CCCNC(=N)N)C(=O)N[C@@H](CCCCN)C(=O)N[C@@H](C)C(=O)N[C@@H](CC(C)C)C(=O)N[C@@H](C)C(=O)N[C@H](C(=O)N[C@@H](CCCCN)C(=O)N[C@@H](CCCCN)C(=O)N[C@@H](Cc1ccc(O)cc1)C(=O)N[C@@H](CC(C)C)C(=O)N[C@@H](C)C(=O)N[C@@H](C)C(=O)N[C@H](C(=O)N[C@@H](CC(C)C)C(N)=O)C(C)C)C(C)C)[C@@H](C)O [Peptide 26, HATzGI FITzSY SRYRK ALAVK KYLAA VL] (Ac-HA[Ala(1H-tetrazol-5-yl)]GIFT[Ala(1H-tetrazol-5-yl)]SYSRYRKALAVKKYLAAVL-NH2) | 93.2 | 89.7 | 97.9 | 94.4
CC[C@H](C)[C@H](NC(=O)CNC(=O)[C@H](Cc1nnn[nH]1)NC(=O)[C@H](CO)NC(=O)[C@H](Cc1c[nH]cn1)NC(C)=O)C(=O)N[C@@H](Cc1ccccc1)C(=O)N[C@@H](C)C(=O)N[C@@H](Cc1nnn[nH]1)C(=O)N[C@@H](CO)C(=O)N[C@@H](Cc1ccc(O)cc1)C(=O)N[C@@H](CO)C(=O)N[C@@H](CCCNC(=N)N)C(=O)N[C@@H](Cc1ccc(O)cc1)C(=O)N[C@@H](CCCNC(=N)N)C(=O)N[C@@H](CCCCN)C(=O)N[C@@H](C)C(=O)N[C@@H](CC(C)C)C(=O)N[C@@H](C)C(=O)N[C@H](C(=O)N[C@@H](CCCCN)C(=O)N[C@@H](CCCCN)C(=O)N[C@@H](Cc1ccc(O)cc1)C(=O)N[C@@H](CC(C)C)C(=O)N[C@@H](C)C(=O)N[C@@H](C)C(=O)N[C@H](C(=O)N[C@@H](CC(C)C)C(N)=O)C(C)C)C(C)C [Peptide 28, HSTzGI FATzSY SRYRK ALAVK KYLAA VL] (Ac-HS[Ala(1H-tetrazol-5-yl)]GIFA[Ala(1H-tetrazol-5-yl)]SYSRYRKALAVKKYLAAVL-NH2) | 94.1 | 89.8 | 98.6 | 90.9
CC[C@H](C)[C@H](NC(=O)CNC(=O)[C@H](Cc1nnn[nH]1)NC(=O)[C@H](CO)NC(=O)[C@H](Cc1c[nH]cn1)NC(C)=O)C(=O)N[C@@H](Cc1ccccc1)C(=O)N[C@@H](C)C(=O)N[C@@H](Cc1nnn[nH]1)C(=O)N[C@@H](CO)C(=O)N[C@@H](Cc1ccc(O)cc1)C(=O)N[C@@H](CO)C(=O)N[C@@H](CCCNC(=N)N)C(=O)N[C@@H](Cc1ccc(O)cc1)C(=O)N[C@@H](CCCNC(=N)N)C(=O)N[C@@H](CCCCN)C(=O)N[C@@H](CCC(N)=O)C(=O)N[C@@H](C)C(=O)N[C@@H](C)C(=O)N[C@H](C(=O)N[C@@H](CCCCN)C(=O)N[C@@H](CCCCN)C(=O)N[C@@H](Cc1ccc(O)cc1)C(=O)N[C@@H](CC(C)C)C(=O)N[C@@H](C)C(=O)N[C@@H](C)C(=O)N[C@H](C(=O)N[C@@H](CC(C)C)C(N)=O)C(C)C)C(C)C [Peptide 29, HSTzGI FATzSY SRYRK QAAVK KYLAA VL] (Ac-HS[Ala(1H-tetrazol-5-yl)]GIFA[Ala(1H-tetrazol-5-yl)]SYSRYRKQAAVKKYLAAVL-NH2) | 86.1 | 77.4 | 96.3 | 91.9
